The target of experiment [1] is T1, T1R1/T1R3 receptor (Felis catus, UniProt E3UMS2). Briefly: Example 8: PAM screening of transmembrane compounds with GMP and Ala on T1R1/T1R3 in HEK293 cells. The settings on record: for T1R1/T1R3 PAM: compound at 0.01, 0.1 and 1 mM in combination with GMP+Ala mixtures (T1-T4), PAM if response greater than sum of compound alone and GMP+Ala alone; for PAM profile assessment (PAM activity): in the presence of GMP and Alanine. The format is cell-based, cat. The text has this:
HEK293 cells that stably express T1R3 and inducibly express T1R1 were exposed to transmembrane compound alone or in combination with Ala and GMP to activate the umami receptor. Activation of the T1R1/T1R3 receptor was detected by a change in intracellular calcium levels using a calcium sensitive fluorescent dye and/or a luminescent reporter system. […] A FLIPR® Tetra or a FlexStation® 3 was used for data capture.
Dose response curves were generated for each transmembrane compound at concentrations of 0 (buffer only), 0.01, 0.1 and 1 mM, wherein each of the three concentrations of transmembrane compound was tested in combination with 0.03 mM GMP+100 mM Ala (T1); 0.6 mM GMP+10 mM Ala (T2); 0.1 mM GMP+60 mM Ala (T3) and 0.3 mM GMP+60 mM Ala (T4). The T4 mixture was also tested in a 2-fold dilution series (the T4(×) Concentration). In these experiments, the first test concentration was 2× (2 times) the T4 concentration. The subsequent test concentrations were 2-fold dilutions from that (1×, 0.5×etc.). This dilution series was tested with or without the addition of the test compound at a constant 0.3 mM concentration.
Activation of the umami receptor was also determined in the presence of 1 mM GMP+100 mM Ala to generate a “maximum” umami receptor activation level.

Experiment [2] addresses T1, T1R1/T1R3 receptor. The experiment is described as follows: Example 8: agonist screening of transmembrane compounds on T1R1/T1R3 in HEK293 cells. The format is cell-based, cat. The settings on record: for T1R1/T1R3 agonist: transmembrane compound tested at 0.01, 0.1 and 1 mM, HEK293 cells expressing T1R1/T1R3, intracellular calcium; for agonist profile assessment (agonist activity): transmembrane compound alone. Here is the method:
HEK293 cells that stably express T1R3 and inducibly express T1R1 were exposed to a transmembrane compound. Activation of the T1R1/T1R3 receptor was detected by a change in intracellular calcium levels using a calcium sensitive fluorescent dye and/or a luminescent reporter system. […] A FLIPR® Tetra or a FlexStation® 3 was used for data capture.
Each transmembrane compound was tested at concentrations of 0.01 mM, 0.1 mM, and 1 mM. […] To generate the dose response curves, the transmembrane compound was tested at concentrations of between 0.0001 mM and 1.0 mM in the presence of GMP and Ala.
On the technique in general: Calcium assays in cells follow changes in intracellular calcium, usually with a dye or a luminescent sensor.

Experiment [3] addresses T1, T1R1/T1R3 receptor. Briefly: cell-based. The text has this: HEK293 cells that stably express T1R3 and inducibly express T1R1 were exposed to nucleotide derivatives alone to activate the umami receptor. Activation of the T1R1/T1R3 receptor was detected by a change in intracellular calcium levels using a calcium sensitive fluorescent dye. Cells that express T1R3 but not T1R1 were used as a control. A FLIPR® Tetra or a FlexStation® 3 was used for data capture.
HEK293 cells that stably express T1R3 and inducibly express T1R1 were exposed to nucleotide derivatives alone or in combination with one or more amino acids and/or one or more nucleotides to activate the umami receptor. Activation of the T1R1/T1R3 receptor was detected by a change in intracellular calcium levels using a calcium sensitive fluorescent dye and/or a luminescent reporter system. Cells that express T1R3 but not T1R1 were used as a control. A FLIPR® Tetra or a FlexStation® 3 was used for data capture.
HEK293 cells that stably express T1R3 and inducibly express T1R1 were exposed to transmembrane compounds alone or in combination with one or more amino acids and/or one or more nucleotides to activate the umami receptor. Activation of the T1R1/T1R3 receptor was detected by a change in intracellular calcium levels using a calcium sensitive fluorescent dye. Cells that express T1R3 but not T1R1 were used as a control. A FLIPR® Tetra or a FlexStation® 3 was used for data capture.
In each experiment, serial dilutions of up to 10 mM of the transmembrane compound were added to the T1R1/T1R3-expressing cells.

The text below walks through data of patent US20180168208A1 (priority 2014, published 2018).

SMILES strings stand for the structures. Like-named read-outs stand apart in the source and are kept apart here.

In the case of `O=C(CN1C(=O)C(=O)N(CCc2cccs2)C1=O)c1cccc2ccccc12` [Formula 11, 1-(2-(naphthalen-1-yl)-2-oxoethyl)-3-(2-(thiophen-2-yl)ethyl)imidazolidine-2,4,5-trione], at T1R1/T1R3 receptor [1], the “T1R1/T1R3 PAM” value is “No”. The T1R1/T1R3 agonist entry on T1R1/T1R3 receptor [2] is “No”.
As for `COC(=O)C(NCc1ccccc1)c1ccccc1` (stereo not shown) [Formula 19, Methyl-2-benzylamino-2-phenylacetate], on T1R1/T1R3 receptor [1], the “T1R1/T1R3 PAM” value is listed as “Yes”. Further, the T1R1/T1R3 agonist entry on T1R1/T1R3 receptor [2] was “Yes”.
`COc1ccc(C(=O)CN2C(=O)C(=O)N(Cc3ccccc3)C2=O)c(OC)c1` [Formula 5, 1-benzyl-3-(2-(2,4-dimethoxyphenyl)-2-oxoethyl)imidazolidine-2,4,5-trione]: the “T1R1/T1R3 PAM” value on T1R1/T1R3 receptor [1] is “No”. Besides, the T1R1/T1R3 agonist entry at T1R1/T1R3 receptor [2] is recorded as “No”.
As for `Cl.N[C@@H](Cc1ccccc1)C(=O)OCc1ccccc1` [L-Phenylalanine benzyl ester hydrochloride], the “PAM profile assessment (PAM activity)” value at T1R1/T1R3 receptor [1] was “PAM activity”. The “agonist profile assessment (agonist activity)” value (“agonist profile assessment” for short) on T1R1/T1R3 receptor [2] is given as “agonist”.
Consider `O=C(CN1C(=O)C(=O)N(CCc2cccs2)C1=O)c1ccccc1` [Formula 6, 1-(2-oxo-2-phenylethyl)-3-(2-(thiophen-2-yl)ethyl)imidazolidine-2,4,5-trione], for which, at T1R1/T1R3 receptor [1], the “T1R1/T1R3 PAM” value is “No”. For the same compound, on T1R1/T1R3 receptor [2], the T1R1/T1R3 agonist result is “No”.
For `O=C(CN1C(=O)C(=O)N(Cc2ccccc2)C1=O)c1ccc2c(c1)OCCCO2` [Formula 8, 1-benzyl-3-(2-(3,4-dihydro-2H-benzo[b][1,4]dioxepin-7-yl)-2-oxoethyl)imidazolidine-2,4,5-trione], the “T1R1/T1R3 PAM” value at T1R1/T1R3 receptor [1] is “Weak PAM”. Further, the T1R1/T1R3 agonist result at T1R1/T1R3 receptor [2] was “No”.
As to `N#Cc1cccc(NC(=O)CN2C(=O)C(=O)N(Cc3ccccc3)C2=O)c1` [Formula 9, 2-(3-benzyl-2,4,5-trioxoimidazolidin-1-yl)-N-(3-cyanophenyl)acetamide], on T1R1/T1R3 receptor [1], the “T1R1/T1R3 PAM” value is on record as “No”. The T1R1/T1R3 agonist entry on T1R1/T1R3 receptor [2] is “No”.
For `COC(=O)[C@@H](Cc1ccccc1)NCc1ccccc1.Cl` [Formula 16, N-Benzyl-D-Phenylalanine methyl ester hydrochloride], the “T1R1/T1R3 PAM” value on T1R1/T1R3 receptor [1] was “Yes”. Also, at T1R1/T1R3 receptor [2], the T1R1/T1R3 agonist entry is “Yes”.
With `O=C(CN1C(=O)C(=O)N(Cc2ccccc2)C1=O)c1ccc(Cl)s1` [Formula 12, 1-benzyl-3-(2-(5-chlorothiophen-2-yl)-2-oxoethyl)imidazolidine-2,4,5-trione], the “T1R1/T1R3 PAM” value on T1R1/T1R3 receptor [1] is “Weak PAM”. Also, on T1R1/T1R3 receptor [2], the T1R1/T1R3 agonist result was “No”.
Taken in the same sequence, the figures for `Cc1ccc(CNC(Cc2ccccc2)C(=O)O)cc1` (stereo not shown) [Formula 23, 2-((4-methylbenzyl)amino)-3-phenylpropanoic acid] were “No” and “No”.
The matching figures for `COC(=O)[C@H](Cc1ccccc1)NCc1ccccc1.Cl` [Formula 15, N-Benzyl-L-phenylalanine methyl ester hydrochloride]: “Yes” and “Yes”.
The matching figures for `O=C(CN1C(=O)C(=O)N(Cc2ccccc2)C1=O)c1ccc2c(c1)OCCO2` [Formula 4, 1-benzyl-3-(2-(2,3-dihydrobenzo[b][1,4]dioxin-6-yl)-2-oxoethyl)imidazolidine-2,4,5-trione]: “No” and “No”.
For the compound `COC(=O)[C@@H](Cc1ccccc1)NCc1ccccc1.Cl` [N-Benzyl-D-Phenylalanine methyl ester hydrochloride], at T1R1/T1R3 receptor [1], the “PAM profile assessment (PAM activity)” value is “PAM activity”. Moreover, the “agonist profile assessment” value at T1R1/T1R3 receptor [2] is on record as “agonist”.
Regarding `Cl.N[C@@H](Cc1ccccc1)C(=O)OCc1ccccc1` [Formula 20, L-Phenylalanine benzyl ester hydrochloride], the “T1R1/T1R3 PAM” value at T1R1/T1R3 receptor [1] is reported as “Yes”. The T1R1/T1R3 agonist entry on T1R1/T1R3 receptor [2] was “Yes”.
Take `O=C(CN1C(=O)C(=O)N(Cc2ccccc2)C1=O)c1ccc(Br)cc1` [Formula 3, 1-benzyl-3-(2-(4-bromophenyl)-2-oxoethyl)imidazolidine-2,4,5-trione]: the “T1R1/T1R3 PAM” value on T1R1/T1R3 receptor [1] is “No”. Moreover, the T1R1/T1R3 agonist result on T1R1/T1R3 receptor [2] was “No”.
On to `O=C(CN1C(=O)C(=O)N(Cc2ccccc2)C1=O)c1ccccc1` [Formula 1, 1-benzyl-3-(2-oxo-2-phenylethyl)imidazolidine-2,4,5-trione], for which the “T1R1/T1R3 PAM” value at T1R1/T1R3 receptor [1] was “No”. In addition, the T1R1/T1R3 agonist entry at T1R1/T1R3 receptor [2] is on record as “No”.
As to `O=C(O)[C@H](Cc1ccc(O)cc1)NCc1ccccc1` [Formula 22, N-Benzyl-L-Tyrosine], at T1R1/T1R3 receptor [1], the “T1R1/T1R3 PAM” value is reported as “No”. Also, the T1R1/T1R3 agonist result at T1R1/T1R3 receptor [2] is “No”.
For `COC(=O)[C@H](CC(C)C)NCc1ccccc1.Cl` [Formula 18, Benzyl-L-leucine methyl ester hydrochloride], on T1R1/T1R3 receptor [1], the “T1R1/T1R3 PAM” value is “Yes”. Moreover, the T1R1/T1R3 agonist entry at T1R1/T1R3 receptor [2] is listed as “Yes”.
Consider `N[C@@H](Cc1ccc(O)cc1)C(=O)OCc1ccccc1` [Formula 21, L-Tyrosine benzyl ester], for which the “T1R1/T1R3 PAM” value at T1R1/T1R3 receptor [1] is recorded as “No”. Further, the T1R1/T1R3 agonist entry on T1R1/T1R3 receptor [2] is on record as “No”.
Consider `COC(=O)[C@H](CC(C)C)NCc1ccccc1.Cl` [Benzyl-L-leucine methyl ester hydrochloride], for which the “PAM profile assessment (PAM activity)” value at T1R1/T1R3 receptor [1] is recorded as “PAM activity”. For the same compound, at T1R1/T1R3 receptor [2], the “agonist profile assessment” value was “agonist”.
`COc1ccccc1C(=O)CN1C(=O)C(=O)N(Cc2cccs2)C1=O` [Formula 10, 1-(2-(2-methoxyphenyl)-2-oxoethyl)-3-(thiophen-2-ylmethyl)imidazolidine-2,4,5-trione]: the “T1R1/T1R3 PAM” value on T1R1/T1R3 receptor [1] is given as “No”. On T1R1/T1R3 receptor [2], the T1R1/T1R3 agonist result is on record as “No”.
On to `O=C1C(=O)N(Cc2ccccc2)C(=S)N1Cc1ccccc1` [Formula 13, 1,3-dibenzyl-2-thioxoimidazolidine-4,5-dione], for which the “T1R1/T1R3 PAM” value on T1R1/T1R3 receptor [1] is listed as “No”. At T1R1/T1R3 receptor [2], the T1R1/T1R3 agonist entry was “No”.
Consider `O=C1CC(=O)N(Cc2ccccc2)C(=O)N1Cc1ccccc1` [Formula 24, 1,3-dibenzylpyrimidine-2,4,6(1H,3H,5H)-trione], for which the “T1R1/T1R3 PAM” value on T1R1/T1R3 receptor [1] is on record as “No”. In addition, on T1R1/T1R3 receptor [2], the T1R1/T1R3 agonist entry is on record as “Yes”.
Turning to `COC(=O)C(NCc1ccccc1)c1ccccc1` (stereo not shown) [Methyl-2-benzylamino-2-phenylacetate], the “PAM profile assessment (PAM activity)” value at T1R1/T1R3 receptor [1] is given as “PAM activity”. Besides, on T1R1/T1R3 receptor [2], the “agonist profile assessment” value is given as “agonist”.
In the case of `O=C1CC(=O)N(Cc2ccccc2)C(=O)N1Cc1ccccc1` [1,3-dibenzylpyrimidine-2,4,6(1H,3H,5H)-trione], the “agonist profile assessment” value on T1R1/T1R3 receptor [2] is “agonist activity”. Further, the “Max resp % of IMP, +Alanine (20 mM)” value on T1R1/T1R3 receptor [3] came out at 42.7%. In addition, the “Thres (mM), +Alanine (20 mM)” value at T1R1/T1R3 receptor [3] is 0.1 mM. Besides, the EC50 was 0.31 mM on T1R1/T1R3 receptor [3] (EC50 (mM), +Alanine (20 mM)); above 0.3 mM at T1R1/T1R3 receptor [3] (EC50 (mM), +Alanine (20 mM) + IMP (0.2 mM)); 0.52 mM on T1R1/T1R3 receptor [3] (EC50 (mM), +IMP (0.2 mM), in the presence of 0.2 mM IMP); 0.52 ± 0.19 mM at T1R1/T1R3 receptor [3] (T1R1/T1R3 EC50 +0.2 mM IMP, +0.2 mM IMP); 0.31 ± 0.05 mM at T1R1/T1R3 receptor [3] (T1R1/T1R3 EC50 +20 mM L-alanine); above 0.3 mM at T1R1/T1R3 receptor [3] (T1R1/T1R3 EC50 +20 mM L-alanine + 0.2 mM IMP). The EC50 was determined as 0.26 ± 0.01 mM on T1R1/T1R3 receptor [3] (alone in buffer, read-out: T1R1/T1R3 EC50 alone in buffer) and 0.26 mM on T1R1/T1R3 receptor [3] (compound alone in buffer, read-out: EC50 (mM), +buffer (alone)). The “Max resp % of Ala, +IMP (0.2 mM)” value on T1R1/T1R3 receptor [3] (in the presence of 0.2 mM IMP, relative to alanine) is on record as 35.7%. Besides, the “Thres (mM), +IMP (0.2 mM)” value at T1R1/T1R3 receptor [3] (threshold concentration in the presence of 0.2 mM IMP) came out at 0.1 mM.
